Experimental data as given in patent publication US7485327B2, “Composition comprising Melissa leaf extract for anti-angiogenic and matrix metalloproteinase inhibitory activity” (AngioLab, Inc., priority 2001, dated 2009).

Tested on: B16BL6 cells
Test: Cancer metastasis: B16BL6 melanoma colonies in lung
Assay type: in vivo, C57BL/6 male mouse
Protocol: B16BL6 cells (5×10^4) were injected into C57BL/6 male mouse of 6 to 7 weeks old through the tail vein. After that, 0.2 ml of water or drug combinations was daily given to mice by oral administration for 3 weeks. Three weeks after injection, the mice were sacrificed and the number of tumor colonies on the surface of lungs was counted under microscope. The average number of melanoma colonies in lungs from mice of treated group was less than that from control mice.

Clc1ccccc1CN1CCc2sccc2C1 [Ticlopidine, ticlopidine]
Inhibition (%) of metastasis (oral daily for 3 weeks): 38%
Colonies in lung (oral daily for 3 weeks after tail vein injection of B16BL6 cells): 83 ± 20
